Data on seven molecules can be found in US20240279233A1, “MACROCYCLIC TAK1 INHIBITORS” (Aqilion AB, priority 2021, published 2024).

Values after ≈ are worked out from the molar mass of the structure shown. Read-outs that look alike come from different tables or passages of the source.

The conditions of data set [1]: from COC(=O)c1cccc2nc(NC(=O)c3cccc(C(=O)O)c3)n(CCCCCN)c12; amide bond; 14-membered ring; HATU/DIEA; 16.0 h; 2 steps.
For data set [2] the following is noted: amide bond, 14-membered ring.
Data set [3] has as its target human recombinant TAK1-TAB1 Kinase (TAK1 (1-303) and TAB1 (437-end)) (Homo sapiens (Human), UniProt O43318). Description: TAK1 biochemical ADP-Glo kinase assay. The note with it: MBP substrate. In outline: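 Inhibition of human recombinant TAK1-TAB1 kinase was measured with a Promega ADP-Glo luminescence assay in 384-well plates. Compounds in 5% DMSO were pre-incubated 10 min with 2 μl TAK1-TAB1 (7.5 ng/μl) in buffer of Tris pH 7.5, MgCl2, DTT and BSA. MBP substrate and ATP were then added for 1 hour at room temperature. ADP-Glo reagent and kinase detection substrate followed, luminescence was read on an Envision, and IC50 came from non-linear regression.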

The test system of data set [4] is phosphorylated p38 (TAK1 activity) in THP-1 cells. Description: Cell-based p38 phosphorylation assay (Western blot). The note with it: for IC50: read-out: IC50 (nM) in phospho-p38 cell assay. How it is done: The cellular activity of example compounds 2, 3 and 9 and the comparative example (i.e. takinib) for inhibiting TAK1 activity was evaluated using an in vitro functional cell assay.
THP-1 cells were incubated at 37° C. in 5% CO2. THP-1 cells were cultured in RPMI 1640, 10% FBS, 1% Penicillin-Streptomycin.
THP-1 cells were treated with 100 nM phorbol 12-myristate 13-acetate (PMA) to induce macrophage differentiation and seeded at the density of 1×10^6 cells/well (2 ml/well in a 6-well plate) for 72 hours. The cell culture media was then replaced with PMA-free media and incubated for further 48 hours. Test compounds were prepared as 200×final assay concentration stocks in DMSO (final concentrations in the assay were 10-0.03 μM in 0.5% DMSO, details provided below). Following THP-1 cell differentiation, cells were treated with different concentrations of the control compound NG25 (CAS No.:1315355-93-1, Tan L, et al. J Med Chem. 2015, 58(1), 183-96) or test compounds (10 μl/well) for 30 minutes followed by 200 ng/ml LPS for 30 minutes.
Test items were kept as 10 mM stock solutions in 100% DMSO. The serial dilution of compounds was prepared as 200× serial dilutions of desired final concentration in […] to reach 0.5% DMSO working solution (see Table 3 below).
Dilution series of compounds from 10 μM final highest concentration to 0.03 μM final low concentration were first made in DMSO (see Table 3), 10 μl of each dilution was mixed into 2 ml of cell cultures (0.5% DMSO per well).
10 μl of DMSO was added to the control. All plates were incubated at 37° C., 5% CO2 for 30 minutes and LPS was added to a final concentration of 200 ng/ml.
For Western blot analysis, cells were lysed (50 mM Tris, 150 mM NaCl, 1 mM EDTA, 1% Triton-X100, 1 mM DTT, complete protease and PhosStop phosphatase inhibitor) after indicated treatment and run on NuPAGE Bis-Tris gel 4-12% gradient (Invitrogen). Following transfer to PVDF membrane and blocking in 5% BSA in PBST, membranes were incubated with primary antibody overnight (specific for phosphorylated p38; Cell Signaling, 1:1,000 dilution). After incubation with species-specific secondary antibodies for 1 hour at room temperature, the membranes were visualized with the ECL SuperSignal™ West Pico PLUS Chemiluminescent Substrate (Thermo Scientific). The images were captured with iBright Western Blot Imaging Systems (Invitrogen) and quantified with ImageJ software (Java-based image processing program developed at the National Institutes of Health and the Laboratory for Optical and Computational Instrumentation). Anti-β-actin antibodies were used as the loading control for whole-cell extracts in all samples (anti-β actin; Sigma-Aldrich, 1:5000 dilution, 1 hour incubation).
For immunoblotting, cells were lysed directly in six-well plates by incubating for 30 min at 4° C. in 60 μl Triton lysis buffer. The lysates were centrifuged for 15 minutes at 13,000×g at 4° C. Equal amount of protein from each supernatants were resuspended with 5× sample buffer. Samples were boiled for 10 minutes and then resolved by 4-12% SDS-PAGE (100 V). Proteins were transferred from gel to PVDF membranes ([…] pore size) following the recommended setting (90 minutes, 85 V). […]
(In western blotting, separated proteins are transferred to a membrane and probed.)

The nature of data set [5]: Solubility assay in phosphate buffer. The following applies: phosphate buffer, pH 7.4, aqueous buffer, kinetic from dmso stock, Solubility (μM), phosphate buffer 100 mM, pH 7.4, room temperature, 20-24 h, LC-UV.
Procedure: (§1) The aqueous solubility of selected example compounds was determined as follows; 6 μL of DMSO stock solution of the selected example was added to 594 μL phosphate buffer (100 mM, pH 7.4). The resulting mixture was equilibrated over night (20-24 h, Alligator Shaker, room temperature). The mixture was then filtered (Millex LH 0.45 μm) and the concentration/solubility was determined by LC-UV quantification.
The conditions of data set [6]: pH 7.4.
Procedure: as §1
Where [7] appears, read: 10 μM ATP, read-out: TAK1 Mean IC50 (nM) @ 10 μM ATP.
Setting [8] is: Homo sapiens, 0.5 h, PMA-differentiated THP-1 cells, compound 30 minutes then 200 ng/ml LPS 30 minutes.
[9] abbreviates: PMA-differentiated THP-1 cells, compound 30 minutes then 200 ng/ml LPS 30 minutes.

human recombinant TAK1-TAB1 Kinase (TAK1 (1-303) and TAB1 (437-end)), sequence (O43318 other isoform, or with tags, fused parts or gaps): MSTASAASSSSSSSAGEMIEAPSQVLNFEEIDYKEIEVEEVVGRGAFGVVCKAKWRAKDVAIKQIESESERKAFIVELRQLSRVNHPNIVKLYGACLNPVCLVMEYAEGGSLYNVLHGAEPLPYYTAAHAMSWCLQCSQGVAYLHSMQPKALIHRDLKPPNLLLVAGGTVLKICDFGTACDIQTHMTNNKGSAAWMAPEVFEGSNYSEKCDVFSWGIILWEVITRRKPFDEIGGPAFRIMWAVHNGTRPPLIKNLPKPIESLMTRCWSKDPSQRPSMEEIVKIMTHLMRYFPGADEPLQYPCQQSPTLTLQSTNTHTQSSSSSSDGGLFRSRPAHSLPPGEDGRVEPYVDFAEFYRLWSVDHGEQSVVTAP

In data set [1], `COC(=O)c1cccc2nc3n(c12)CCCCCNC(=O)c1cccc(c1)C(=O)N3` displayed a ring closure, crude yield of 76%.

Consider `O=C1NCCCCCn2c(nc3ccccc32)NC(=O)c2cccc1c2` [Example 2, 1^1H-2,6-diaza-1(2,1)-benzo[d]imidazola-4(1,3)-benzenacycloundecaphane-3,5-dione], for which the ring closure, isolated yield in data set [2] (from NCCCCCn1c(NC(=O)c2cccc(C(=O)O)c2)nc2ccccc21, HATU/DIEA, DMF, 51.0 mM, 25.0 °C, 16.0 h) came to 2%. In addition, the IC50 (commonly the concentration that inhibits the measured activity by half) amounted to 3 nM in data set [3] (setting [7]) and 200 nM in data set [4] (setting [8]). Further, the solubility (commonly the dissolved amount per volume that the medium holds) in data set [5] was 0.5 µM (≈ 0.174 µg/mL).

In turn, `CN1CCN(Cc2ccc3c(c2)nc2n3CCCCCNC(=O)c3cccc(c3)C(=O)N2)CC1` [Example 3, 1^5-((4-methylpiperazin-1-yl)methyl)-1^1H-2,6-diaza-1(2,1)-benzo[d]imidazola-4(1,3)-benzenacycloundecaphane-3,5-dione] came in with a ring closure, isolated yield in data set [2] (from CN1CCN(Cc2ccc3c(c2)nc(NC(=O)c2cccc(C(=O)O)c2)n3CCCCCN)CC1, HATU/DIEA, DMF, 2.4 mM, 1.17 h) of 13%. Further, the results for the IC50 in data set [3] (setting [7]) and in data set [4] (setting [8]) were 1 nM and 4.5 nM, respectively. In addition, in data set [5], the solubility worked out at 31.5 µM (≈ 14.5 µg/mL).

Consider `COC(=O)c1cccc2nc3n(c12)C(C)CCCCNC(=O)c1cccc(c1)C(=O)N3` (stereo not shown) [Example 7, methyl 11-methyl-3,5-dioxo-1^1H-2,6-diaza-1(2,1)-benzo[d]imidazola-4(1,3)-benzenacycloundecaphane-1^7-carboxylate], for which the ring closure, isolated yield in data set [2] (from COC(=O)c1cccc2nc(NC(=O)c3cccc(C(=O)O)c3)n(C(C)CCCCN)c12, HATU/TEA, dioxane, 2.2 mM, 25.0 °C, 16.0 h, 2 steps) came out at 21%. For the same molecule, the IC50 in data set [3] (setting [7]) stood at 4 nM. Moreover, the “solubility” value in data set [6] amounted to 0.9 µM (≈ 0.378 µg/mL).

In the case of `CC1CCCCNC(=O)c2cccc(c2)C(=O)Nc2nc3cccc(C(=O)N4CCN(C(=O)OC(C)(C)C)CC4)c3n21` (stereo not shown) [Example 9, tert-butyl 4-(11-methyl-3,5-dioxo-1^1H-2,6-diaza-1(2,1)-benzo[d]imidazola-4(1,3)-benzenacycloundecaphane-1^7-carbonyl)piperazine-1-carboxylate], the IC50 in data set [3] (setting [7]) turned out to be 1 nM; in data set [4] (setting [9]), 600 nM. The “potency and efficacy compared with Comparative Example 1 (takinib)” value in data set [4] (THP-1 cells, LPS, phospho-p38) is “greater”. Besides, the “solubility” value in data set [6] turned out to be 30.9 µM (≈ 17.8 µg/mL).

Turning to `O=C1NCCCCCn2c(nc3cccc(C(=O)O)c32)NC(=O)c2cccc1c2` [Example 18, (E)-3,5-dioxo-1^2,1^3-dihydro-1^1H-2,6-diaza-1(2,1)-benzo[d]imidazola-4(1,3)-benzenacycloundecaphane-1^7-carboxylic acid], in data set [3] (setting [7]), the IC50 came to 9 nM. Also, the “solubility” value in data set [6] was determined as 95.0 µM (≈ 37.3 µg/mL).

Turning to `CCCn1c(NC(=O)c2cccc(C(N)=O)c2)nc2ccccc21` [takinib, N-(1-propyl-1H-benzo[d]imidazol-2-yl)isophthalamide, reference compound], the IC50 came out at 17 nM in data set [3] (setting [7]) and 280 nM in data set [3] (1 mM ATP, read-out: TAK1 Mean IC50 (nM) @ 1 mM ATP). Besides, the “IC50 (nM) in phospho-p38 cell assay” value in data set [4] (setting [9]) is “inactive”. This molecule also displayed a solubility in data set [5] of 0.9 µM (≈ 0.29 µg/mL).
